Consider one compound from patent US20250042912A1, “NOVEL NON-FLUORINATED QUINOLONE COMPOUND AND USE THEREOF” (priority 2021, published 2025).

In experiment [1] the test system is acne model mice (Propionibacterium acnes ATCC 6919 injected into the left ear). The experiment can be described thus: Acne model in mice: auricular thickness, redness and swelling of the left ear. It counts as in vivo, Balb/C mice. Here is the method:
Experimental strain: Propionibacterium acnes ATCC 6919 (Beijing Biobw Biotechnology Co., Ltd.) Experimental animals: Balb/C mice (Zhejiang Vital River Laboratory Animal Technology Co., Ltd.) Balb/C mice were grouped and numbered, and adaptively fed for one week. On the day of modeling, Propionibacterium acnes was taken, and OD600 was measured using a microplate reader. BH1 culture medium was diluted to OD600=1 (about 5×10^8 CFU/mL), centrifuged to discard supernatant, and the remaining culture was diluted to 1×10^8 CFU/mL with PBS. Once the molding began, the mice were anesthetized with a small animal anesthesia machine, the air flow and isoflurane content of the anesthesia machine were adjusted, and the mice were placed in an anesthesia induction chamber for anesthesia induction. After there were no obvious signs of activity, the mice were taken out and their toes were clamped with tweezers or hemostatic forceps for toe pinching reaction testing, if there was no retraction pain response, the surgery could be performed. The anesthetized mice were placed on a mice plate and fixed, the air flow or isoflurane content was adjusted to maintain anesthesia (isoflurane anesthesia induction content of 3% to 4%, anesthesia maintenance content of 1% to 2%, and air flow rate of 300 mL/min to 500 mL/min). Blank control group: 20 μL of PBS was intracutaneously injected into the left ear of each mouse. Model group, drug group to be tested: 20 μL suspension of Propionibacterium acnes in PBS was intracutaneously injected into the left ear of each mouse. After the injection of Propionibacterium acnes, the mice in each group were administered according to the methods of administration and dosages described in Table 5 at 4 hours, 20 hours, 28 hours, and 44 hours. […] The drugs to be tested included Compound 6, Compound 7, and Compound 12, all of which were in a form of hydrochloride. In this experiment, Compound 6, Compound 7, and Compound 12 all referred to the corresponding hydrochloride drugs with a solvent of 40% DMSO+60% glycerol, the drugs were added into DMSO, heated to 100° C. in a water bath, and then glycerol was added thereto to obtain a bright yellow viscous solution. Administration area: Propionibacterium acnes was injected into the left ear. Administration time: the drugs were administrated at 4 hours, 20 hours, 28 hours, and 44 hours post-injection of Propionibacterium acnes, a total of 4 times. Balb/C mice were anesthetized with a small animal anesthesia machine and isoflurane in Compound 6 group, Compound 7 group, Compound 12 group, and model group. […] Auricular thickness measurement: after Propionibacterium acnes was injected for 48 hours, the auricular thicknesses of mice were measured with a vernier caliper.

Another experiment relates to CXCL1/KC. The experiment can be described thus: Acne model in mice: CXCL1 level in left ear tissue. It counts as in vivo, Balb/C mice. Here is the method:
Experimental strain: Propionibacterium acnes ATCC 6919 (Beijing Biobw Biotechnology Co., Ltd.) Experimental animals: Balb/C mice (Zhejiang Vital River Laboratory Animal Technology Co., Ltd.) Balb/C mice were grouped and numbered, and adaptively fed for one week. On the day of modeling, Propionibacterium acnes was taken, and OD600 was measured using a microplate reader. BH1 culture medium was diluted to OD600=1 (about 5×10^8 CFU/mL), centrifuged to discard supernatant, and the remaining culture was diluted to 1×10^8 CFU/mL with PBS. Once the molding began, the mice were anesthetized with a small animal anesthesia machine, the air flow and isoflurane content of the anesthesia machine were adjusted, and the mice were placed in an anesthesia induction chamber for anesthesia induction. […] Mouse BCA protein detection: after Propionibacterium acnes was injected for 48 hours, the BCA protein detection was detected by using the BCA protein concentration assay kit. The left ear of mouse was homogenized with 1 mL of PBS and the dilution factor equivalent to a mass volume ratio of 1:9 was calculated, then centrifuged at 1500 g for 10 minutes. […] […] was measured with a microplate reader, the standard curves were plotted, and the BCA concentrations were calculated. […]

For `CN(C)c1cc2c(cn1)-c1ccc3c(=O)c(C(=O)O)cn(C4CC4)c3c1COC2` [Compound 6], in experiment [1] (Balb/C mice acne model, macroscopic, after treatment, drugs as hydrochloride, in words), the “redness and swelling on the left ears of mice” value is “reduced to varying degrees”. In experiment [1] (Balb/C mice, left ear, 48 hours after injection of Propionibacterium acnes, 15 μL applied at 4, 20, 28, 44 hours, drugs as hydrochloride), the “Auricular thickness (% of Blank) Mean ± SD” value is on record as 112.71 ± 17.19 % of Blank. In addition, the “Auricular thickness Mean ± SD” value in experiment [1] (Balb/C mice, left ear, 48 hours after injection of Propionibacterium acnes, 15 μL applied at 4, 20, 28, 44 hours, drugs as hydrochloride in 40% DMSO+60% glycerol) was determined as 0.51 ± 0.08 mm. Moreover, in experiment [1] (compared with acne model group, p<0.05, in words), the “auricular thicknesses of the left ears of mice after treatment” value is recorded as “significantly reduced”. In the experiment with CXCL1/KC (Balb/C mice, left ear homogenate, 48 hours after injection of Propionibacterium acnes, 15 μL applied at 4, 20, 28, 44 hours, drugs as hydrochloride), the “CXCL1 Mean ± SD” value is listed as 191.5 ± 32.71 pg/mg. The “CXCL1 content in the left ear tissues of mice after treatment” value in the experiment on CXCL1/KC (compared with acne model group, p<0.001, in words) is “significantly reduced”.
